From article PMC6588435 (Cell chemical biology, 2019)
In brackets after ≈: the same amount, converted by molar mass. Several values for one entry are separate records, joined by “and”; a condition that tells them apart may be missing. Equal values may be shown once. Read-outs that look alike come from different tables or passages of the source.

Tests used:
Mtb cells = conditions: treatment of Mtb cells; ref Nixon et al. (2014); cited from earlier work
Mtb Erdman (ATCC 35801) = assay: In vitro susceptibility testing; format: cell-based, Mycobacterium tuberculosis
Mtb Erdman cells = format: cell-based, Mycobacterium tuberculosis
Mtb DHFR [1] = target: T1, Mtb DHFR (Mycobacterium tuberculosis, UniProt P9WNX1); assay: biochemical
T1 sequence (P9WNX1 whole entry): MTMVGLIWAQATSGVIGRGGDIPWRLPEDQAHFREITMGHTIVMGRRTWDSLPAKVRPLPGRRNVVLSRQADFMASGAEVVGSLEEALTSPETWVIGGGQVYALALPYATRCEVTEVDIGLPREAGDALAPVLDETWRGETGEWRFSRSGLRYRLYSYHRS

Mtb FDTS [2] = target: T2, Mtb FDTS (Mycobacterium tuberculosis, UniProt P9WG57); assay: Differential scanning calorimetry of Mtb FDTS; conditions: DSC; control (FDTS, dUMP, FAD) 66.6 °C
T2 sequence (P9WG57 whole entry): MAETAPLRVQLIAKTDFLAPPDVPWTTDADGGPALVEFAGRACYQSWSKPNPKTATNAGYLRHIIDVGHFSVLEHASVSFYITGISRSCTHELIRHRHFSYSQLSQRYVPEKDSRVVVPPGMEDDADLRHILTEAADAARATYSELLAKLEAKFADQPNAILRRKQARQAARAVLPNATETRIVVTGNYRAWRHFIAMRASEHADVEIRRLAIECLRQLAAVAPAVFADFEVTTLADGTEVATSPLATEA

Mtb Rv2671 = Mtb Rv2671 (Mycobacterium tuberculosis, UniProt P71968); assay: Mtb Rv2671 enzyme inhibition assay; format: biochemical
Mtb FDTS [3] = target: T2, Mtb FDTS; assay: Mtb FDTS NADPH oxidation assay; format: biochemical
Mtb DHFR [4] = target: T1, Mtb DHFR; assay: biochemical; remark: listed apart in the source
Mtb FDTS [5] = target: T2, Mtb FDTS; assay: HPLC analysis of Mtb FDTS reaction; format: biochemical
Mtb DHFR [6] = target: T1, Mtb DHFR; format: binding; conditions: DSC, with NADPH; control (Mtb DHFR+NADPH) 65 °C
[7] = read-out: Mtb Rv2671 Ki, 50 μM NADPH

In the case of CC1(C)N=C(N)N=C(N)N1OCCCOc1cc(Cl)c(Cl)cc1Cl [WR99210], the “decrease in the concentration of SAM” value (Mtb cells) is listed as 20 fold.

In the case of CN(Cc1cnc2nc(N)nc(N)c2n1)c1ccc(C(=O)N[C@@H](CCC(=O)O)C(=O)O)cc1 [MTX, Methotrexate], the MIC (Mtb Erdman (ATCC 35801); Mycobacterium tuberculosis, ATCC35801|ERDMAN) is reported as > 100 µg/mL.

In the case of Nc1ccc(C(=O)O)c(O)c1 [PAS, para-aminosalicylic acid], the “reduction of 14C incorporation to the FAME/MAME fraction” value (Mtb Erdman cells; 0.36 μg/ml) is reported as 52%, the “effect on methoxymycolic acids” value (Mtb Erdman cells; TLC of FAME/MAME) is reported as “significant reduction” and the MIC (Mtb Erdman (ATCC 35801); Mycobacterium tuberculosis, ATCC35801|ERDMAN, read-out: MIC, WT Mtb) is reported as 0.5 µg/mL (≈ 3.27 µM).

With Nc1nc(=O)c2nc(CNc3ccc(C(=O)NC(CCC(=O)O)C(=O)O)c(O)c3)cnc2[nH]1 (centres unmarked) [PAS-M, 2-[(4-{[(2-amino-4-oxo-1,4-dihydropteridin-6-yl)methyl]amino}-2-hydroxyphenyl)formamido] pentanedioic acid] the koff (Mtb DHFR [1]; read-out: Mtb DHFR koff) was 0.0107 s⁻¹, the residence time (Mtb DHFR [1]; read-out: Mtb DHFR tR (residence time)) was 1.5 ± 0.3 min and the “Mtb FDTS Tm” value (Mtb FDTS [2]) was 71.9 °C. For the same compound, the Ki (Mtb Rv2671) was 27500 nM, the IC50 (Mtb FDTS [3]) was 14400 ± 1500 nM and the Ki (Mtb DHFR [4]) was 750 ± 120 nM. The “decrease in dTMP levels compared to control” value (Mtb FDTS [5]) was ~ 2.5 fold.

For CCc1nc(N)nc(N)c1C#C[C@H](C)c1cc(-c2ccncc2)ccc1OC [UCP1063], the Ki (Mtb Rv2671; [7]) was 52 ± 6.2 nM, the MIC (Mtb Erdman (ATCC 35801)) was 2 µg/mL (≈ 5.36 µM) and the “Mtb DHFR Tm” value (Mtb DHFR [6]) was 71 °C and 71 ± 2.7 °C.

Compound CCc1nc(N)nc(N)c1C#C[C@@H](C)c1cc(-c2ccc(C(=O)O)cc2)ccc1OC [UCP1164] has a Ki (Mtb Rv2671; [7]) of 120 ± 8.5 nM and an MIC (Mtb Erdman (ATCC 35801)) of 0.5 µg/mL (≈ 1.2 µM).
